# From patent US20150209315A1 (Cumberland Pharmaceuticals, priority 2009, published 2015)
# Columns and labels:
# [1] = test system: post-operative adult patients; test: Example 1: patient self-assessment of pain, VAS at rest; type: in vivo, human; conditions: 800 mg
# Description: Pain was measured by the patient's self-assessment using a Visual Analog Scale (VAS) from 0-10 with 0 being no pain and 10 being intense pain. This was measured both at rest and with movement. […] […] To account for the missing pain assessments, two missing value approaches as described in the statistical analysis plan were used to impute values. To determine the difference in overall pain at differing time-points, the area under the VAS pain curve during the first 24 hours, between 6 and 24 hours and between 12 and 24 hours were analyzed.
# [2] = test system: post-operative adult patients; test: Example 1: adverse events and safety labs; type: in vivo, human
# Description: Patients were evaluated and compared for morphine requirements between the active doses and placebo using analysis of variance and covariance procedures at an overall alpha level of 0.05. Secondary efficacy parameters were also evaluated and compared among the treatment groups using appropriate statistical methods described in the statistical analysis section of the protocol. Safety information was compared between the treatment groups using Chi-Square or Cochran-Mantel-Haenszel test. Demographic, background and baseline information among the treatment groups was also described.
smiles,measurement,setting,value
"CC(C)Cc1ccc(C(C)C(=O)O)cc1 (stereo not shown) [Ibuprofen, 2-(4-isobutylphenyl) propionic acid]",VAS Score measured at Rest (median),"[1]; EEP, 2-Hour",6.0
same,"VAS Score measured at Rest, % Reduction vs Placebo","[1]; EEP, 2-Hour",−1.7%
same,VAS Score measured at Rest (median),"[1]; EEP, 3-Hour",5.0
same,"VAS Score measured at Rest, % Reduction vs Placebo","[1]; EEP, 3-Hour",0.0%
same,VAS Score measured at Rest (median),"[1]; EEP, 6-Hour",5.0
same,"VAS Score measured at Rest, % Reduction vs Placebo","[1]; EEP, 6-Hour",−25.0%
same,VAS Score measured at Rest (median),"[1]; EEP, 9-Hour",3.0
same,VAS Score measured at Rest (median),"[1]; EEP, 12-Hour",3.0
same,"VAS Score measured at Rest, % Reduction vs Placebo","[1]; EEP, 12-Hour",0.0%
same,VAS Score measured at Rest (median),"[1]; EEP, 15-Hour",2.8
same,"VAS Score measured at Rest, % Reduction vs Placebo","[1]; EEP, 15-Hour",6.7%
same,VAS Score measured at Rest (median),"[1]; EEP, 18-Hour",2.0
same,"VAS Score measured at Rest, % Reduction vs Placebo","[1]; EEP, 18-Hour",33.3%
same,VAS Score measured at Rest (median),"[1]; EEP, 21-Hour",2.0
same,"VAS Score measured at Rest, % Reduction vs Placebo","[1]; EEP, 21-Hour",33.3%
same,VAS Score measured at Rest (median),"[1]; EEP, 24-Hour",2.0
same,"VAS Score measured at Rest, % Reduction vs Placebo","[1]; EEP, 24-Hour",33.3%
same,VAS Score measured at Rest (median),"[1]; EEP, 27-Hour",2.3
same,VAS Score measured at Rest (median),"[1]; EEP, 30-Hour",2.4
same,"VAS Score measured at Rest, % Reduction vs Placebo","[1]; EEP, 30-Hour",14.3%
same,VAS Score measured at Rest (median),"[1]; EEP, 33-Hour",2.3
same,"VAS Score measured at Rest, % Reduction vs Placebo","[1]; EEP, 33-Hour",28.1%
same,VAS Score measured at Rest (median),"[1]; EEP, 36-Hour",2.2
same,"VAS Score measured at Rest, % Reduction vs Placebo","[1]; EEP, 36-Hour",15.4%
same,VAS Score measured at Rest (median),"[1]; EEP, 39-Hour",2.7
same,"VAS Score measured at Rest, % Reduction vs Placebo","[1]; EEP, 39-Hour",−50.0%
same,VAS Score measured at Rest (median),"[1]; EEP, 42-Hour",1.8
same,"VAS Score measured at Rest, % Reduction vs Placebo","[1]; EEP, 42-Hour",10.0%
same,VAS Score measured at Rest (median),"[1]; EEP, 45-Hour",2.0
same,"VAS Score measured at Rest, % Reduction vs Placebo","[1]; EEP, 45-Hour",4.8%
same,VAS Score measured at Rest (median),"[1]; EEP, 48-Hour",1.1
same,VAS Score measured at Rest (median),"[1]; ITT, 1-Hour",7.0
same,"VAS Score measured at Rest, % Reduction vs Placebo","[1]; ITT, 1-Hour",0.0%
same,VAS Score measured at Rest (median),"[1]; ITT, 2-Hour",5.7
same,"VAS Score measured at Rest, % Reduction vs Placebo","[1]; ITT, 2-Hour",6.6%
same,VAS Score measured at Rest (median),"[1]; ITT, 3-Hour",5.0
same,"VAS Score measured at Rest, % Reduction vs Placebo","[1]; ITT, 3-Hour",0.0%
same,VAS Score measured at Rest (median),"[1]; ITT, 6-Hour",4.0
same,"VAS Score measured at Rest, % Reduction vs Placebo","[1]; ITT, 6-Hour",0.0%
same,VAS Score measured at Rest (median),"[1]; ITT, 9-Hour",3.0
same,VAS Score measured at Rest (median),"[1]; ITT, 12-Hour",2.9
same,"VAS Score measured at Rest, % Reduction vs Placebo","[1]; ITT, 12-Hour",3.3%
same,VAS Score measured at Rest (median),"[1]; ITT, 15-Hour",2.6
same,"VAS Score measured at Rest, % Reduction vs Placebo","[1]; ITT, 15-Hour",21.2%
same,VAS Score measured at Rest (median),"[1]; ITT, 18-Hour",2.0
same,"VAS Score measured at Rest, % Reduction vs Placebo","[1]; ITT, 18-Hour",33.3%
same,VAS Score measured at Rest (median),"[1]; ITT, 21-Hour",2.0
same,"VAS Score measured at Rest, % Reduction vs Placebo","[1]; ITT, 21-Hour",42.9%
same,VAS Score measured at Rest (median),"[1]; ITT, 24-Hour",2.0
same,"VAS Score measured at Rest, % Reduction vs Placebo","[1]; ITT, 24-Hour",33.3%
same,VAS Score measured at Rest (median),"[1]; ITT, 27-Hour",2.2
same,VAS Score measured at Rest (median),"[1]; ITT, 30-Hour",2.3
same,"VAS Score measured at Rest, % Reduction vs Placebo","[1]; ITT, 30-Hour",14.8%
same,VAS Score measured at Rest (median),"[1]; ITT, 33-Hour",2.3
same,"VAS Score measured at Rest, % Reduction vs Placebo","[1]; ITT, 33-Hour",28.1%
same,VAS Score measured at Rest (median),"[1]; ITT, 36-Hour",2.2
same,"VAS Score measured at Rest, % Reduction vs Placebo","[1]; ITT, 36-Hour",15.4%
same,VAS Score measured at Rest (median),"[1]; ITT, 39-Hour",2.7
same,"VAS Score measured at Rest, % Reduction vs Placebo","[1]; ITT, 39-Hour",−50.0%
same,VAS Score measured at Rest (median),"[1]; ITT, 42-Hour",1.9
same,"VAS Score measured at Rest, % Reduction vs Placebo","[1]; ITT, 42-Hour",5.0%
same,VAS Score measured at Rest (median),"[1]; ITT, 45-Hour",1.9
same,"VAS Score measured at Rest, % Reduction vs Placebo","[1]; ITT, 45-Hour",5.0%
same,VAS Score measured at Rest (median),"[1]; ITT, 48-Hour",1.3
same,"VAS Score measured at Rest, % Reduction vs Placebo","[1]; ITT, 48-Hour",13.3%
same,patients experiencing nausea vs placebo,[2]; 400 mg,significant reduction
same,bleeding or renal complications,[2]; 400 mg and 800 mg,no additional bleeding or renal complications
same,patients experiencing serious adverse events vs placebo,[2]; 400 mg and 800 mg,no significant differences in the number of patients experiencing serious adverse events between groups
same,Dizziness vs placebo,[2]; 800 mg,experienced more often
same,patients experiencing diarrhea vs morphine only (placebo),[2]; 800 mg,significant reduction
same,patients experiencing nausea vs placebo,[2]; 800 mg,trending toward significance
same,patient deaths,[2]; 14 day study,no patient deaths
same,patients experiencing gastrointestinal disorders and fever vs morphine only (placebo),[2]; both 400 mg and 800 mg,significant reduction
